Structures are written as SMILES.

Here are results for 1 compound from EP0697214A1, “Liposomal cyclosporin pharmaceutical formulations” (VESTAR, INC., priority 1994, dated 1996).

Experiment [1] deals with sensitive L1210 murine leukemia cells. Nature of the experiment: Multiple drug resistance test, 3H-thymidine uptake. It counts as cell-based. As to conditions: Mus musculus, daunorubicin alone, 24 hours, read-out: IC₅₀ in Sensitive Cells. As for the experimental part:
(§1) Multiple drug resistance (MDR) was tested in vitro using resistant and sensitive L1210 murine leukemia cells. Liposomal Cyclosporine was obtained as described in Example 13 (19:3:1 formulation HEPC:DMPG:Cyclosporine) except that a spray dried lipid powder was used and the unilamellar vesicles were formed through homogenization. Daunorubicin, Cyclosporine-CreL, and liposomal Cyclosporine were diluted in RPMI-1640. The final concentration of daunorubicin in each well was 0, 0.3, 1, 3, 10, 30, 100 or 1000 ng/ml. The final concentration of Cyclosporine-CreL in each well was 0, 10, 70, 300, 1,250, 5,000, 20,000, 80,000, 160,000, 310,000, 620,000, or 1,050,000 ng/ml. The final concentration of liposomal Cyclosporine in each well was 0, 10, 70, 300, 1,250, 5,000, 20,000, 80,000, 160,000, 310,000, 620,000, or 1,050,000 ng/ml. Fifty microliters of each daunorubicin concentration was added to one well of a flat bottom 96-well culture plate. Fifty microliters of the appropriate concentration of Cyclosporine-CreL or liposomal Cyclosporine were also added to each well. Each drug combination was tested in triplicate. […]
(§2) After 20 hours of incubation, the cells were pulsed with 0.5µCu of³H-Thymidine per well. […] The cells in each well were then harvested using a Skatron Harvester and counted in a beta liquid scintillation counter (LKB). The IC₅₀ was calculated using a linear regression treatment of the data.

Experiment [2] has as its system resistant L1210 murine leukemia cells. Nature of the experiment: Multiple drug resistance test, 3H-thymidine uptake. It counts as cell-based. The following applies: Mus musculus, daunorubicin alone, 24 hours, read-out: IC₅₀ in Resistant Cells. Here is the method: as §1, §2

`COc1cccc2c1C(=O)c1c(O)c3c(c(O)c1C2=O)C[C@@](O)(C(C)=O)C[C@@H]3O[C@H]1C[C@H](N)[C@H](O)[C@H](C)O1` [Daunorubicin]: the IC50 in experiment [1] is 0.47 µg/mL; in experiment [2], 0.722 µg/mL.
